# The source made the active and inactive calls. No cut-off for these calls is given here.
# What was measured:
# [1] = system: Severe acute respiratory syndrome-related coronavirus; test: Inhibition of SARS CoV-1 MPro using Boc-Abu-Tle-Leu-Gln-AMC as substrate incubated for 10 mins by fluorescence based assay
# [2] = biological target: T1, Replicase polyprotein 1ab (Severe acute respiratory syndrome coronavirus 2, UniProt P0DTD1); test: Inhibition of full-length SARS CoV-2 MPro expressed in Escherichia coli BL21(DE3) using Boc-Abu-Tle-Leu-Gln-AMC as substrate incubated for 10 mins by fluorescence based assay
# [3] = Stability of compound in 1 mM GSH at 100 uM incubated for 1 hr by HPLC-ESI-MS analysis; assay type: ADME
# [4] = Stability of compound in 1 mM GSH at 10 uM incubated for 1 hr by HPLC-ESI-MS analysis; assay type: ADME
# SARS-CoV-2 = test: microbe, parasite or virus in culture; conditions: Severe acute respiratory syndrome coronavirus 2, Calu-3
# [5] = (§1) Cytotoxicity against human Calu-3 cells; assay type: toxicity, cell-based; conditions: Calu-3 cells
# Calu-3 [6] = test: as §1; assay type: toxicity, cell-based; conditions: calu-3, 10 µM, dose 10 µM
# [7] = Stability of compound in 1 mM GSH assessed as compound remaining at 10 to 100 uM incubated for 1 hr by HPLC-ESI-MS analysis; assay type: ADME; conditions: 1 mM GSH solution, dose 10-100 µM, read-out: Stability
# [8] = biological target: T1, Replicase polyprotein 1ab; test: Inhibition of SARS CoV-2 MPro
# [9] = biological target: Replicase polyprotein 1ab (Severe acute respiratory syndrome coronavirus 2) (UniProt P0DTD1); test: Inhibition of His-tagged recombinant SARS CoV-2 MPro expressed in Escherichia coli BL21(DE3) using Boc-Abu-Tle-Leu-Gln-AMC as substrate at 1 uM incubated for >6 hrs by fluorescence based assay relative to control
# Calu-3 [10] = test: Cytotoxicity against human Calu-3 cells at 10 uM; assay type: toxicity, cell-based; conditions: calu-3, 10 µM
# [11] = biological target: Replicase polyprotein 1ab (Severe acute respiratory syndrome coronavirus 2) (UniProt P0DTD1); test: Inhibition of full-length SARS CoV-2 MPro expressed in Escherichia coli BL21(DE3) using Boc-Abu-Tle-Leu-Gln-AMC as substrate at 1 uM incubated for 10 mins by fluorescence based assay relative to control
# [12] = Inhibition of MERS CoV MPro using Boc-Abu-Tle-Leu-Gln-AMC as substrate incubated for 10 mins by fluorescence based assay; parameters: species or system Middle East respiratory syndrome-related coronavirus
# [13] = Stability of compound in 1 mM GSH assessed as compound remaining at 100 uM incubated for 1 hr by HPLC-ESI-MS analysis; assay type: ADME; conditions: 1 mM GSH solution, read-out: Stability
# [14] = biological target: Replicase polyprotein 1ab (Severe acute respiratory syndrome coronavirus 2) (UniProt P0DTD1); test: Inhibition of His-tagged recombinant SARS CoV-2 MPro expressed in Escherichia coli BL21(DE3) using Boc-Abu-Tle-Leu-Gln-AMC as substrate at 1 uM incubated for shorter period by fluorescence based assay relative to control
smiles,measurement,setting,value
O=C(Oc1cncc(Cl)c1)c1cccc(Cl)c1Cl,inhibition,[1],Active
same,IC50,[2],0.126 µM
COc1ccccc1C(=O)Oc1cncc(Cl)c1,inhibition,[1],inactive
same,IC50,[2],0.264 µM
COc1ccc(C(=O)Oc2cncc(Cl)c2)cc1Cl,Stability,[3],Stable
same,Stability,[4],Unstable
same,IC50,[2],0.247 µM
O=C(Oc1cncc(Cl)c1)c1c(F)cccc1F,inhibition,[1],inactive
same,IC50,[2],0.0292 µM
O=C(Oc1cncc(Cl)c1)c1ccc(-c2cccnc2)cc1,IC50,[2],0.137 µM
O=C(Oc1cncc(Cl)c1)c1cccnc1,IC50,[2],0.758 µM
O=C(Oc1cncc(Cl)c1)c1cc(F)cc(F)c1,IC50,[2],0.0383 µM
O=C(Oc1cncc(Cl)c1)c1ccccc1F,inhibition,[1],Active
same,IC50,[2],0.0259 µM
O=C(Oc1cncc(Br)c1)c1ccc(Cl)cc1,IC50,[2],0.0957 µM
O=C(Oc1cncc(Cl)c1)c1ccccc1Cl,IC50,[2],0.0604 µM
O=C(Oc1cncc(Cl)c1)c1ccc(-c2ccccc2)cc1,inhibition,[1],inactive
same,Stability,[3],Stable
same,EC50,SARS-CoV-2,0.0587 µM
same,CC50,[5],14.7 µM
same,Activity,Calu-3 [6],Dose-Dependent Effect
same,"remaining at 1 h, up to 100 µM",[7],50%
same,IC50,[2],0.15 µM
O=C(Oc1cncc(Cl)c1)c1cccs1,Ki,[8],0.0811 µM
CCOc1ccc(C(=O)Oc2cncc(Cl)c2)c(F)c1,inhibition,[9],100%
same,inhibition,[1],inactive
same,Activity,Calu-3 [10],Non-Toxic
same,EC50,SARS-CoV-2,0.00268 µM
same,IC50,[2],0.0474 µM
O=C(Oc1cncc(Cl)c1)c1ccc(I)cc1F,inhibition,[1],inactive
same,IC50,[2],0.0149 µM
COc1cccc(C(=O)Oc2cncc(Br)c2)c1OC,inhibition,[9],100%
same,IC50,[2],0.0782 µM
O=C(Oc1cncc(Cl)c1)c1ccccc1,IC50,[2],0.0404 µM
O=C(Oc1cncc(Cl)c1)c1ccccc1-c1ccccc1,Stability,[3],Stable
same,Stability,[4],Unstable
same,inhibition,[11],6%
same,IC50,[2],> 1 µM
O=C(Oc1cncc(Cl)c1)c1ccc(F)cc1,IC50,[2],0.119 µM
O=C(Oc1cncc(Cl)c1)c1cc(Cl)cc(Cl)c1,IC50,[2],0.133 µM
COc1ccc(C(=O)Oc2cncc(Br)c2)cc1,inhibition,[9],100%
same,Activity,Calu-3 [10],Non-Toxic
same,Stability,[3],Stable
same,EC50,SARS-CoV-2,1.86 µM
same,IC50,[2],0.0963 µM
O=C(Oc1cncc(Br)c1)c1ccc(I)cc1F,Stability,[3],Stable
same,IC50,[2],0.0335 µM
COc1ccc(F)c(C(=O)Oc2cncc(Cl)c2)c1F,IC50,[2],0.0303 µM
Cc1cc(Cl)ccc1C(=O)Oc1cncc(Cl)c1,IC50,[2],3.4 µM
O=C(Oc1cncc(Br)c1)c1cccc(Cl)c1,IC50,[2],0.0505 µM
O=C(Oc1cncc(Cl)c1)c1ccc(Cl)c(Cl)c1,inhibition,[1],Active
same,IC50,[2],0.0964 µM
COc1cccc(C(=O)Oc2cncc(Cl)c2)c1,inhibition,[1],Active
same,Stability,[4],Unstable
same,IC50,[2],0.00513 µM
same,IC50,[12],0.112 µM
O=C(Oc1cncc(Cl)c1)c1cc2cc(Cl)ccc2[nH]1,"remaining at 1 h, 100 µM",[13],> 70%
same,Stability,[4],Unstable
N#Cc1ccc(C(=O)Oc2cncc(Cl)c2)c(F)c1,IC50,[2],0.047 µM
O=C(Oc1cncc(Cl)c1)c1cccc2[nH]ccc12,"remaining at 1 h, 100 µM",[13],> 70%
same,Stability,[4],Stable
O=C(Oc1cncc(Br)c1)c1ccccc1Cl,IC50,[2],0.0392 µM
COc1ccc(C(=O)Oc2cncc(Cl)c2)cc1,inhibition,[9],100%
same,inhibition,[1],inactive
same,Activity,Calu-3 [10],Non-Toxic
same,Stability,[3],Stable
same,EC50,SARS-CoV-2,0.0108 µM
same,"remaining at 1 h, up to 100 µM",[7],50%
same,IC50,[2],0.164 µM
COc1cccc(C(=O)Oc2cncc(Cl)c2)c1OC,inhibition,[9],100%
same,inhibition,[1],Active
same,IC50,[2],0.0845 µM
CCOc1ccc(C(=O)Oc2cncc(Cl)c2)cc1,"remaining at 1 h, up to 100 µM",[7],50%
same,IC50,[2],0.329 µM
O=C(Oc1cncc(Br)c1)c1ccccc1,IC50,[2],0.0405 µM
O=C(Oc1cncc(Cl)c1)c1cccc(F)c1,IC50,[2],0.0464 µM
O=C(Oc1cncc(Cl)c1)c1cccc(-c2ccccc2)c1,Stability,[3],Stable
same,Stability,[4],Unstable
same,IC50,[2],0.117 µM
CC(C)(C)[C@H](NC(=O)C(F)(F)F)C(=O)N1C[C@H]2[C@@H]([C@H]1C(=O)N[C@H](C#N)C[C@@H]1CCNC1=O)C2(C)C,Stability,[3],Stable
same,Stability,[4],Stable
O=C(Oc1cncc(Cl)c1)c1ccc(Cl)cc1Cl,inhibition,[1],Active
same,IC50,[2],0.108 µM
same,inhibition,[14],100%
O=C(Oc1cncc(Cl)c1)c1cccc(Cl)c1,IC50,[2],0.0551 µM
O=C(Oc1cncc(Cl)c1)c1ccc(Br)cc1F,inhibition,[1],inactive
same,IC50,[2],0.0349 µM
Nc1ccc(C(=O)Oc2cncc(Cl)c2)c(F)c1,Stability,[3],Stable
same,IC50,[2],0.943 µM
O=C(Oc1cncc(Cl)c1)c1ccc(Cl)cc1F,inhibition,[1],inactive
same,IC50,[2],0.0457 µM
same,inhibition,[14],100%
O=C(Oc1cncc(Cl)c1)c1ccc(Cl)cc1,IC50,[2],0.218 µM
CNc1ccc(C(=O)Oc2cncc(Cl)c2)cc1,Stability,[3],Stable
same,"remaining at 1 h, up to 100 µM",[7],50%
same,IC50,[2],3.94 µM
COc1cccc(C(=O)Oc2cncc(Br)c2)c1,IC50,[2],0.0199 µM
O=C(Oc1cncc(Cl)c1)c1ccc(I)cc1,inhibition,[1],inactive
same,Stability,[4],Unstable
same,IC50,[2],0.0912 µM
N=C(N)Nc1ccc(C(=O)Oc2cncc(Cl)c2)cc1,IC50,[2],0.0659 µM
COc1ccc(C(=O)Oc2cncc(Cl)c2)c(OC)c1,Stability,[3],Stable
same,IC50,[2],1.67 µM
COc1cc(F)ccc1C(=O)Oc1cncc(Cl)c1,IC50,[2],0.249 µM
O=C(Oc1cncc(Br)c1)c1ccc(OCc2ccccc2)cc1F,inhibition,[9],100%
same,IC50,[2],0.232 µM
O=C(Oc1cncc(Br)c1)c1ccc(Cl)cc1F,IC50,[2],0.0356 µM
same,inhibition,[14],100%
O=C(Oc1cncc(Br)c1)c1ccc(Cl)c(Cl)c1,IC50,[2],0.0375 µM
O=C(Oc1cncc(Cl)c1)c1ccc(OCc2ccccc2)cc1F,inhibition,[9],100%
same,inhibition,[1],inactive
same,Stability,[3],Stable
same,Stability,[4],Unstable
same,IC50,[2],0.322 µM
COc1c(Cl)ccc(C(=O)Oc2cncc(Cl)c2)c1F,IC50,[2],0.0707 µM
O=C(Oc1cncc(Br)c1)c1ccc(Cl)cc1Cl,IC50,[2],0.0845 µM
same,inhibition,[14],100%
O=C(Oc1cncc(Br)c1)c1ccccc1F,IC50,[2],0.0107 µM
O=C(Oc1cncc(Cl)c1)c1ccncc1,IC50,[2],0.725 µM
CCOc1ccc(C(=O)Oc2cncc(Br)c2)c(F)c1,inhibition,[9],100%
same,Stability,[4],Unstable
same,IC50,[2],0.107 µM
CCCCCCCOc1ccc(C(=O)Oc2cncc(Cl)c2)cc1,Stability,[3],Stable
same,"remaining at 1 h, up to 100 µM",[7],50%
same,inhibition,[11],8%
same,IC50,[2],> 1 µM
